“Also recorded” adds a separate entry of the source. Where two headings read alike, the source gives them in different places.
Legend:
[1] = biological target: T1, purified, full length human ERα (Homo sapiens, UniProt P03372); experiment: Relative binding affinity (RBA) radiometric competitive binding assay, ERα; details: relative binding affinity, E2 (estradiol) is 100%; tritiated estradiol tracer
T1 construct: purified, full length human ERα and ERβ
T1 sequence (P03372 1-595): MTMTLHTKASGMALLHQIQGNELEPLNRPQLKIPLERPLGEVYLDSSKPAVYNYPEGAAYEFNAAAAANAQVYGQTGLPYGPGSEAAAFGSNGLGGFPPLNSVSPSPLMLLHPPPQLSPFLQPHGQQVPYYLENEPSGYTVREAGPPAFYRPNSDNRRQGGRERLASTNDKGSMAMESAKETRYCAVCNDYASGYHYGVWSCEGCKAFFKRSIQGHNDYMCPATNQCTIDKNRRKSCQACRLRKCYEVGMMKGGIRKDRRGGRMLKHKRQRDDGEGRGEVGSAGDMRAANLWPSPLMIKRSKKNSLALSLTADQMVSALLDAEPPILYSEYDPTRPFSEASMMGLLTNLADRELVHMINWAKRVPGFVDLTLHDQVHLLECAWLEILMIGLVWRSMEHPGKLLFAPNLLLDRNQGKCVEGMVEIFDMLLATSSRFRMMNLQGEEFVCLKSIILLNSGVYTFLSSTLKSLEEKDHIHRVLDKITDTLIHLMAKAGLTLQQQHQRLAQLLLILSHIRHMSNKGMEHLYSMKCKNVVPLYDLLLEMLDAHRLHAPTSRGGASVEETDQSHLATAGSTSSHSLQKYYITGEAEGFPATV

[2] = biological target: T2, purified, full length human ERβ (Homo sapiens, UniProt Q92731); experiment: Relative binding affinity (RBA) radiometric competitive binding assay, ERβ; details: for β/α (ERβ/ERα selectivity): ratio of RBA ERβ to RBA ERα
T2 construct: purified, full length human ERα and ERβ

[3] = tested on: Primary OPCs; experiment: Primary OPC culture: MBP+ OL differentiation and total cell count (DAPI); type: cell-based, mouse; details: for number of MBP+ OLs with increased percentage of branched OLs, compared to vehicle-treated cells: 10 nM; for MBP expression / number of MBP+ OLs, compared to vehicle-treated cells: 1 nM
Protocol: Primary OPC Cultures: Primary OPCs, isolated from postnatal day P1 C57BL/6 male and female mouse cortices as described previously, are treated with 10 nM ligands in differentiating medium for […] (Tiwari-Woodruff et al., 2001; Tiwari-Woodruff et al., 2006). Primary OPC are cultured into 8-well chamber slides (three wells per condition, 2.5×10^5 cells/well) for three days to attach and five days in differentiating media (consisting of DMEM-F12 with triiodothyronine- and thyroxine-containing Sato as well as penicillin, streptomycin, insulin, N-acetyl-L-cysteine, forskolin, ciliary neurotrophic factor, neurotrophin-3, and platelet-derived growth factor […] (Tiwari-Woodruff et al., 2001)). A positive control (IndC1), a negative control (Vehicle consisting of the media+EtOH mixture used to dissolve IndCl), and a normal control (differentiating media alone) are used for comparison. At the end of the treatment period, cells are fixed, stained by immunocytochemistry (primary antibody polyclonal chicken myelin basic protein (MBP, Millipore AB9348), and co-stained with nuclear stain-DAPI), and imaged with an Olympus BX61 confocal microscope (Olympus America Inc., Center Valley, PA) at 10× magnification (3 images per well). Cells are counted using the ImageJ multipoint tool, and counts are then divided by the image area (mm^2). Average cell density for each condition is then divided by the normal condition cell density. Analysis of OL differentiation consists of counting the number of MBP+ cells and process extensions that are longer than the respective cell-body diameter and tracking the number of highly branched MBP+ cells (with three or more processes) (Monnerie et al., 2017). Statistics are performed using GraphPad Prism 6 Software (La Jolla, CA). One-way ANOVA with Tukey's posthoc test for multiple comparisons is used to generate p-values, and data are presented as mean±SEM (with α≤0.05).
FIG. 1A-1D show the effects of treatment with the 7-substituted indazole compounds on the expression of myelin basic protein in OLs (MBP^+-OLs, top two panels) as an indication of murine oligodendrocyte precursor cell (OPC) differentiation, as well as the count of the total cells as an indication of cell proliferation/survival (DAPI nucleus stain, bottom two panels). The cells were treated with the listed compounds at 10 nM (FIG. 1A, 1B) and at 1 nM (FIG. 1C, 1D).

[4] = tested on: Cuprizone-Induced Demyelinated Mouse Model; experiment: Myelin recovery in the cuprizone-induced demyelinated mouse model (MOG IHC, Corpus Callosum); type: in vivo, C57BL/6 female mice
Protocol: The Cuprizone assay of demyelination-remyelination was conducted by the methods described previously (Moore et al. 2013; Crawford et al, 2009a,b). A group of animals was on normal diet (N groups). The remainder of the mice were divided into groups of 5 and all of these groups of mice were fed cuprizone diet at (0.2% cuprizone mixed in chow). After 6 weeks on cuprizone diet-induced demyelination, a group of 5 mice were perfused (DM group). The other groups of mice were switched to normal diet for 1.5 weeks to initiate remyelination and were treated with either (i) Vehicle (SC+V) or (ii) test compound at a dose of 5 mg/kg. […] After 1.5 weeks of normal diet-induced remyelination, the mice were perfused. Brains were collected, cryoprotected, embedded, cut, and IHC for myelin oligodendrocyte glycoproteins (MOG) was performed. Cuprizone study results after 1.5-weeks treatment with the designated 7-substituted compounds via SC administration following 6 weeks cuprizone treatment of (C57BL/6) female mice are shown in FIG. 5. The height of each bar graph represents level of myelination assessed by the expression of MOG in the white matter tracks of the Corpus Callosum area quantified by immunohistochemical analysis (IHC) after staining with a MOG antibody. N: Normal diet, DM: Demyelinated status after 6 weeks cuprizone treatment, SC-Veh: Spontaneous remyelination after injection with matrix in saline solution only (without compound; recovery is only about 40%). (Mice: ~2 months age, SC: Subcutaneous injection, n=5). Cuprizone study results for the 3-weeks treatment with the 6-substituted compound 17 via SC administration following the 6 weeks of 0.2% cuprizone treatment of C57BL/6 female mice are shown in FIG. 6. The height of each bar graph represents level of myelination assessed by the expression of MOG in the white matter tracks of the Corpus Callosum area quantified by immunohistochemical analysis (IHC) after staining with a MOG antibody. N: Normal diet, DM: Demyelinated status after 6 weeks cuprizone treatment, SC-Veh: Spontaneous remyelination after injection with matrix in saline solution only (without compound; recovery is only about 40%). (Mice: ~2 months age, SC: Subcutaneous injection, n=5~6). […] (Mice: ~2 months age, s.c.: Subcutaneous administration, n=5).

[5] = tested on: uterus; experiment: Uterotrophic effect (uterine weight) in non-ovariectomized mice of the cuprizone study; type: in vivo; details: daily SC 5 mg/kg
Text: The uterus was taken from the mice treated with compounds 5 and 7 from the recovery assessment study using the Cuprizone-induced demyelination model. Uterine weight for each compound is represented by % uterus/body weight.
Estrogens increase uterine weight by acting primarily through ERα (Hewitt and Korach, 2003).

[6] = 2-hour single-point pharmacokinetic (PK) study, blood and brain; type: in vivo, C57BL/6 female mice; details: for Kp at 2 h: female, C57BL/6, mouse, brain / blood
Protocol: The 2-Hour single-point pharmacokinetics for IndCl-7-Cl (compound 7), IndCl-7-Br-3′-OH (compound 12), and IndCl-7-Cl-3′-F (compound 14) was examined in (two and half month old C57BL/6 female) mice after single subcutaneous (SC) injection or oral gavage (PO) in 0.1 mL at a dose 5 mg/kg for SC and 25 mg/kg for PO administration. The vehicle for SC administration was 0.1 mL 10% ethanol and 90% Miglyol 812N or 10% DMSO saline and for PO administration, 0.1 mL 2-hydroxypropyl-beta-cyclodextrin [HPCD]/40% aqueous solution MW ~1540. Two hours after injection blood and brain were collected and processed for quantification of the administered compound at the University of Illinois Metabolomics Core Facility by liquid chromatography-mass spectrometry (LC-MS/MS). The bar graphs indicate the analyzed concentration in the blood and the brain in nM units for each sample and each administered method. The brain uptake ratio over the blood of compound 7 (IndCl-7-C1) in the PO and SC pharmacokinetic study is as high as ~7 and ~6, respectively.
For subcutaneous (SC) injection, the compound made up as a homogeneous suspension in 10% ethanol and 90% Miglyol 812N (vehicle; Sasol) and a 0.1 mL dose was administered by SC injection at a dose of 5 mg/kg body weight. For PO administration, the compound was dissolved into 40% (2-Hydroxypropyl)-β-cyclodextrin (Mw~ 1540)(HP-CD) and administered via oral gavage in a volume of 0.1 mL at a dose of 25 mg/kg body weight.

[7] = SC 5 mg/kg, 1.5-weeks treatment after 6 weeks cuprizone

T2 sequence (Q92731 whole entry): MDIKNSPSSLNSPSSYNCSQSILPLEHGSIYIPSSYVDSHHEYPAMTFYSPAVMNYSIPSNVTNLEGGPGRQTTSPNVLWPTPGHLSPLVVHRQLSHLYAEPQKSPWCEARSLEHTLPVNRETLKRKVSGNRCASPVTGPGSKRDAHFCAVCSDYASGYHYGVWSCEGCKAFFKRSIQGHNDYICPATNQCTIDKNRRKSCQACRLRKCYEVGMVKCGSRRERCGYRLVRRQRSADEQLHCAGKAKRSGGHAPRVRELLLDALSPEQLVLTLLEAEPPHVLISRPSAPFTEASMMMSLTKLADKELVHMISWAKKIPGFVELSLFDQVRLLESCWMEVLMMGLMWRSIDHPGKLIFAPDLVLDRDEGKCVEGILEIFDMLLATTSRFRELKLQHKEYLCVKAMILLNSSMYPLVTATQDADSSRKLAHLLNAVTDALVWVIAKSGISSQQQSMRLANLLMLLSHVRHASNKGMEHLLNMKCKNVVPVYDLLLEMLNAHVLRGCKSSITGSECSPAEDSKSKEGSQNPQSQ

SMILES | RBA ERα [1] | β/α (ERβ/ERα selectivity) [2] | number of MBP+ OLs with increased percentage of branched OLs, compared to vehicle-treated cells [3] | remyelination (MOG expression in Corpus Callosum) [4, 7] | uterotrophic effect, uterine weight (% uterus/body weight) vs vehicle [5] | MBP expression / number of MBP+ OLs, compared to vehicle-treated cells [3] | concentration in the brain after PO administration compared with SC injection ([6]; PO 25 mg/kg vs SC 5 mg/kg, 2 hours) | brain uptake (in words) ([6]; PO 25 mg/kg, 2 hours) | brain uptake (in words) ([6]; SC 5 mg/kg, 2 hours) | Kp at 2 h ([6]; PO 25 mg/kg, 2 hours after dosing, read-out: brain uptake ratio over the blood) | Kp at 2 h ([6]; SC 5 mg/kg, 2 hours after dosing, read-out: brain uptake ratio over the blood) | RBA ERβ ([2]; relative binding affinity, E2 (estradiol) is 100%, tritiated estradiol tracer) | Kp at 2 h ([6]; PO 25 mg/kg, 2 hours, n=3, read-out: concentration in brain relative to concentration in blood) | remyelination (MOG expression in Corpus Callosum) ([4]; SC, 3-weeks treatment after 6 weeks of 0.2% cuprizone)
Oc1ccc(-n2nc3c(Br)cc(O)cc3c2I)cc1 [Compound 5, 7-bromo-2-(4-hydroxyphenyl)-3-iodo-2H-indazol-5-ol] | 6.95% | 23 | significant increase | somewhat less remyelination | did not show uterotrophic effects significantly different from mice treated with vehicle alone; also recorded: did not stimulate the uterus weight significantly | – | – | – | – | – | – | – | – | –
Oc1ccc(-n2nc3c(Cl)cc(O)cc3c2Cl)cc1 [Compound 7, 3,7-dichloro-2-(4-hydroxyphenyl)-2H-indazol-5-ol] | 6.9 ± 2.4% | 45 | significant increase | accelerates remyelination, reaching levels at or above the normal myelin level | did not show uterotrophic effects significantly different from mice treated with vehicle alone; also recorded: did not stimulate the uterus weight significantly | particularly significant increase | markedly higher | selective high brain uptake | selective high brain uptake | ~7 | ~6 | – | – | –
Oc1ccc(-n2nc3cc(F)c(O)cc3c2Cl)cc1 [Compound 17, 3-chloro-6-fluoro-2-(4-hydroxyphenyl)-2H-indazol-5-ol] | 0.968% | 48.7 | significant increase | – | – | good MBP expression; also recorded: significant increase | – | – | – | – | – | 47.11% | 3 | recover above the normal level; also recorded: accelerate remyelination to reach a level at or above the normal level

Reference: patent publication US20260224532A1, “ESTROGEN RECEPTOR BETA LIGANDS FOR THE PREVENTION AND TREATMENT OF MULTIPLE SCLEROSIS (MS) AND OTHER DEMYELINATING, INFLAMMATORY AND NEURODEGENERATIVE DISEASES” (The Board of Trustees of the University of Illinois, priority 2023, published 2026)
